Data reported in patent publication US20240124428A1, “HETEROCYCLIC INHIBITORS OF PCSK9” (CARDIO THERAPEUTICS PTY LTD, priority 2020, published 2024).
pIC50: −log10 of the molar value.

Tests used:
Caco-2 cells = assay: Caco2 assay; type: in vitro ADME, human; conditions: 10 μM, 90 min
Description: Caco-2 cells are a human colon epithelial cancer cell line used as a model of human intestinal absorption of drugs and other compounds. The compounds were assessed for their oral suitability in this assay, as compounds with good oral bioavailability likely evade efflux by pumps. The permeability coefficient (Papp) denotes the permeability of the drug through a monolayer of cells. Transport is assessed in both directions (apical to basolateral (A-B) and basolateral to apical (B-A)) across the cell monolayer to enable an efflux ratio to be determined which provides an indicator as to whether a compound undergoes active efflux.
Caco-2 cells were removed from an incubator and the cell monolayer was washed with HBSS buffer before the Transepithelial/transendothelial electrical resistance (TEER) was measured at room temperature. The transport experiment was started by adding 10 μM solution of test compounds in HBSS buffer containing luciferase yellow to the apical side. A sample from the apical chamber was taken at t=0 min. The volumes of the apical and basal sides were 400 μL and 800 μL respectively. The apical and basolateral plates were incubated at 37° C. for 90 min. After 90 min, the apical plate was separated from the basolateral plate and an aliquot from the basolateral side was transferred to an opaque plate for the determination of lucifer yellow concentration at t=90 min. The luciferase yellow concentration of each sample was measured by fluorimetry using excitation and emission wavelengths of 485 nm and 535 nm, respectively. Samples from the donor and receiver chambers were diluted with 0.4% DMSO in HBSS then mixed with ACN and either osalmid or imipramine, which were used as an IS in preparation for analysis by LC-MS/MS. Samples were then assayed for their levels of test compounds using an UPLC-MS/MS-29(API6500+) or an LC-MS/MS-014(API4000) instrument operating in a positive electrospray ionisation mode.

CYP3A4 = biological target: T1, CYP3A4 (Homo sapiens, UniProt P08684); assay: CYP inhibition assay, CYP3A4; type: in vitro ADME; conditions: probe Midazolam (5 μM), human liver microsomes
T1 construct: using human liver microsomes; from tissue; host or cells: human liver microsomes
T1 sequence (P08684 whole entry): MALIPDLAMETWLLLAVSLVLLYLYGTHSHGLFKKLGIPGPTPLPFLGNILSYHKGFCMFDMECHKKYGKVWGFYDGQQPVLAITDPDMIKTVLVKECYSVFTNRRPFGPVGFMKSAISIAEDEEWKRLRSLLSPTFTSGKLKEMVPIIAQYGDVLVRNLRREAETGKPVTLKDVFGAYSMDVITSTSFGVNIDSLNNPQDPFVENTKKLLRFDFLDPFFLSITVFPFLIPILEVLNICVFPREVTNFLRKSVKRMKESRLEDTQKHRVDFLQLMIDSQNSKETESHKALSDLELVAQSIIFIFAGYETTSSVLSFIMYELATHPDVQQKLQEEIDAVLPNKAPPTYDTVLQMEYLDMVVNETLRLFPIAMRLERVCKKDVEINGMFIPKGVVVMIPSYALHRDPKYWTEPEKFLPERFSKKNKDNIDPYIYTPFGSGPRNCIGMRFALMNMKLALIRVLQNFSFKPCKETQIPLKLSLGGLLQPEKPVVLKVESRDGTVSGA
Description: In vitro CYP (cytochrome P450) enzyme inhibition studies predict a drug candidate's predisposition to inhibit cytochrome P450 enzymes. The cytochrome P450 (CYP) inhibition assay was run against CYP2D6 and CYP3A4 isoforms using human liver microsomes. For CYP2D6, the probe substrates was Bufaralol (10 μM) and the positive control was Quinidine (2.5 μM). Midazolam (5 μM) was chosen as the probe substrate for CYP3A4 and Ketocanazole (2.5 μM) was used as the positive control inhibitor. To increase the throughput of the assay, one concentration (10 μM) was tested. For analysis via LC-MS, internal standards of 1-OH-Bufuralol-maleate-[D9] for CYP2D6 and 1′-OH-Midazolam-13C3 for CYP3A4 were used.

[1] = biological target: T2, binding between PCSK9 and the LDL receptor (Homo sapiens, UniProt Q8NBP7); assay: In vitro PCSK9-LDLR binding assay (CircuLex kit)
T2 construct: purchased CircuLex
T2 sequence (Q8NBP7 153-692): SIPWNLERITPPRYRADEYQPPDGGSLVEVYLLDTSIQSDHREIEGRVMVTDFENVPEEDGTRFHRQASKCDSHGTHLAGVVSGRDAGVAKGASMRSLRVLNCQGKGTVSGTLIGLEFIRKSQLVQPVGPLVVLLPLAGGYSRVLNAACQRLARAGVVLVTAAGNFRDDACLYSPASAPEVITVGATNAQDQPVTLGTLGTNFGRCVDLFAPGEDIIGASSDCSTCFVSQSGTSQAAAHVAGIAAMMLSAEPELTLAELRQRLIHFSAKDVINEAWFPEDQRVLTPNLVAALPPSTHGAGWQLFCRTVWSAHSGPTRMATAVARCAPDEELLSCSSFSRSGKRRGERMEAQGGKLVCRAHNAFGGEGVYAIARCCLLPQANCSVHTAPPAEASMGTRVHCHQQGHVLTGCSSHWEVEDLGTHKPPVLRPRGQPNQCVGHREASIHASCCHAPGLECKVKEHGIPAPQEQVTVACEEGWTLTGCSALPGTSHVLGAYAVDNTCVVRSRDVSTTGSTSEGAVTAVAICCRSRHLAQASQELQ
T2 sequence (Q8NBP7 31-152 partner limits assumed): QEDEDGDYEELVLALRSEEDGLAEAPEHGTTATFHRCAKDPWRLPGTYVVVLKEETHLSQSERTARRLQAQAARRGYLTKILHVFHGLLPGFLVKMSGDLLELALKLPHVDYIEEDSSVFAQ
Description: Compounds were assayed for their ability to inhibit the binding between PCSK9 and the LDL receptor using a CircuLex PCSK9-LDLR in vitro binding assay kit. The procedure employed the reagents and buffers included in the kit as follows. 88 μL of 1× reaction buffer was placed into each well. 5 μL of test compound in 20% DMSO was added into each well. 10 mM solutions of test compounds in DMSO were diluted by 3-fold series to give 6-point concentration curves. The compounds were then diluted 20-fold with the reaction buffer. To each well was then added 7 μL of His-tagged PCSK9 wild type solution (1000 ng/mL). The plate was then covered with a plate sealer and incubated at room temperature for 3 hours, shaking at 300 rpm on an orbital microplate shaker. The test solutions were washed 4 times with 350 μL wash buffer. One 100 μL of biotinylated anti-His-tag monoclonal antibody was added to each well. The plate was covered with a plate sealer, and incubated at room temperature for 1 h, shaking at 300 rpm. The test solutions were washed 4 times with 350 μL wash buffer. […] of HRP-conjugated streptavidin was added to each well. The plate was covered with a plate sealer, and incubated at room temperature for 20 min, shaking at 300 rpm. The test solutions were washed 4 times with 350 μL wash buffer. 100 μL of substrate reagent was added into each well. The plate was covered with a plate sealer, and incubated at room temperature for 15 min, shaking at 300 rpm. Finally, 100 μL of stop solution was added to each well in the same order as the previously added substrate reagent.
The results of the binding assay are shown in FIG. 3, reported as IC50 (μM).

[2] = Dedicated pharmacokinetic study, single oral dose; type: in vivo, C57BL/6 mice; conditions: mice, route and dose not given; for half-life: C57BL/6, mouse, plasma, intravenous, 0.4 mg/kg
[3] = HepG2 cytotoxicity (CellTiter-Glo); type: cell-based; conditions: human, HepG2 cells; 48 h of exposure
Description: HepG2 is a human hepatoma commonly used in drug metabolism and hepatotoxicity studies.
HepG2 cells were seeded at a density of 7000 or 8000 cells/well in a 96-well plate. Twenty to twenty four hours later, cells were treated with test compound for 48 hours in 3-fold serial dilutions with a top test concentration of 50 or 150 μM. After the incubation, CellTiter-Glo reagent was added directly to the wells. The plate was shaken for 2 or 5 mins on a plate shaker then incubated at room temperature for a further 10 mins. Subsequently, 100 μL of the above solution was transferred to a white flat bottom opaque 96 well plate (or opaque-walled clear bottom plates taped with a white bottom seal) and luminescence recorded on a plate reader.

hERG channel = biological target: T3, hERG channel (Homo sapiens, UniProt Q12809); assay: hERG assay (automated QPatch); type: cell-based; conditions: CHO cells expressing hERG channels
T3 construct: expressed in transfected cells; host or cells: CHO
T3 sequence (Q12809 whole entry): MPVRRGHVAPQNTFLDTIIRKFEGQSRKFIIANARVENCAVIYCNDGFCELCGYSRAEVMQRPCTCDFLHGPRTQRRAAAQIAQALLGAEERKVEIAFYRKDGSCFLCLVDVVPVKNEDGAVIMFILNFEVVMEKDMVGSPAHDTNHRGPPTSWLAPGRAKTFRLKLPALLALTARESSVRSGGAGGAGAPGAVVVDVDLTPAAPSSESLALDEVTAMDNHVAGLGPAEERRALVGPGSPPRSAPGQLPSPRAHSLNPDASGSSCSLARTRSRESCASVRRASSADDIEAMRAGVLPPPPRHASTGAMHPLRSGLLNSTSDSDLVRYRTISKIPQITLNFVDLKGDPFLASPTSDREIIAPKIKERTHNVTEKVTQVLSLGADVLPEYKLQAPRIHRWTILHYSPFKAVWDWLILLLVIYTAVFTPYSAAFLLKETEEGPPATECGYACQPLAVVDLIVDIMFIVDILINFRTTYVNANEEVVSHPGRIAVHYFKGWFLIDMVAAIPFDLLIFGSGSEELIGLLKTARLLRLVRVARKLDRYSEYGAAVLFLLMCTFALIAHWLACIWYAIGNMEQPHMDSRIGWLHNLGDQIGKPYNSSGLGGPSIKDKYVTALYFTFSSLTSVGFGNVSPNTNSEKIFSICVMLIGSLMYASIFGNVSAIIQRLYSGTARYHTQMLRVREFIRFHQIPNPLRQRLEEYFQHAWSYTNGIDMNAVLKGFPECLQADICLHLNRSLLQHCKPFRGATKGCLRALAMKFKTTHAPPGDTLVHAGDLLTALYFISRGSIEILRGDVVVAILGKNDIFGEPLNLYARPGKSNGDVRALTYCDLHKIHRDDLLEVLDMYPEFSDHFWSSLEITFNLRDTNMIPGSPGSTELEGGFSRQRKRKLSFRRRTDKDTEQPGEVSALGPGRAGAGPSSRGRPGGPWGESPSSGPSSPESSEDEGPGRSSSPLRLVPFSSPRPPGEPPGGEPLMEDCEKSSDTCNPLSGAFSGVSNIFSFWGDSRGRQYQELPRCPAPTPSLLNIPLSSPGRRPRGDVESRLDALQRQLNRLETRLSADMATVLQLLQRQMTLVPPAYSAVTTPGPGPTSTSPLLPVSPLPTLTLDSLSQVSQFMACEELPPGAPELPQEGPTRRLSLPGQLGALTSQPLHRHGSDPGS
Description: A CHO cell line stably transfected with hERG cDNA and expressing hERG channels was used. Cells used in the QPatch all met the following criteria: under microscopy examination, the majority of cells in suspension were single and isolated, their viability was greater than 95%, cell density ranged between 3-8×10^6 cells/mL in the final suspension before applying to the QPatch stir chamber. Cells were used within 4 hours of harvesting. Whole-cell recordings were performed using automated QPatch (Sophion Bioscience, Denmark). The cells were voltage clamped at a holding potential of −80 mV. The hERG current was activated by depolarising at +20 mV for 5 seconds, after which the current was taken back to −50 mV for 2.5 seconds to remove the inactivation and observe the outward tail current. The maximum amount of tail current was used to determine hERG current amplitude.

bioavailability indicated by the in vitro Caco2 study (Caco-2 cells) | inhibition at 10 µM (CYP3A4) | pIC50 [1] | half-life [2] | T1/2 [2] | Structure (SMILES) | IC50 at 48 h [3] | pIC50 (hERG channel)
good bioavailability | -15.4% | 6.55 | 11.3 h | – | Cc1ccc(-c2cc(CN3CCC(F)(F)[C@H](N)C3)cc(NC(=O)c3cc(-c4ccccc4)ccn3)c2)cn1 [Compound 122] | 11.1 µM | 4.45
good bioavailability | 74% | 6.49 | – | 6.29 h | Cc1cn(-c2cc(CN3CCC[C@H](N)C3)cc(NC(=O)c3cc(-c4ccccc4)ccn3)c2)cn1 [compound 29, (S)—N-(3-((3-aminopiperidin-1-yl)methyl)-5-(4-methyl-1H-imidazol-1-yl)phenyl)-4-phenylpicolinamide] | 3.23 µM | 5.55
good bioavailability | 0.68% | 6.26 | 19 h | – | Cc1cnc(C(=O)Nc2cc(CN3CCC(F)(F)[C@H](N)C3)cc(-c3ccc(C(F)(F)F)nc3)c2)cc1-c1ccccc1 [compound 131] | 109 µM | 4.03
